Assay results: patent US10556926B2, “Synthetic artificial peptides with antimicrobial effect” (priority 2014, dated 2020)
Read-outs that look alike come from different tables or passages of the source. No end group written: not given here.

Assays:
[1] = test system: human histiocytic lymphoma cell line U937; test: Long-term growth inhibition, minimum toxic concentration (MTC)
Outline: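 U937 cells (5·10^4/ml final, RPMI 1640 + 2 mM glutamine + 10% FCS) exposed to peptides at 0.25–64 µM for 2 h at 37 °C, 5% CO2, then cultured at least four further days. MTC taken as the lowest peptide concentration giving complete growth suppression after four days.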

[2] = test system: human cell line U937; test: Mixed culture experiment (bacterially contaminated cell culture), eukaryotic cells; type: cell-based; conditions: 25 and 50 μM peptide, two hours, with S. xylosus
Procedure: (§1) Destruction of the bacteria membranes by the antimicrobial peptides was investigated in a flow cytometric method with the help of a living/dead staining method in combination with an internal calibration and counting system. For this purpose, SYBR Green I (Sigma-Aldrich) was used as total staining and propidium iodide (Sigma-Aldrich) was used as contrast staining for membrane-damaged bacteria. […] The flow analysis was carried out on a Cytomics FC500 Instrument (Beckmann Coulter, Munich, Germany) equipped with an argon laser (488 nm) and the corresponding emission filters for SYBR Green I (525 nm) and propidium iodide (620 nm). […] Then, the mixture was incubated for 10 min in the dark at room temperature and then measured by flow cytometry. The number of events in each gate was captured and evaluated using the CXP Analyses 2.2 Software. The total number of living and dead bacteria was calculated. […]
(§2) The ability of the antimicrobial peptides to be used as a therapeutic active ingredient was investigated by reference to its selective antimicrobial properties in model mixed culture experiments. […] Then, the mixed cell cultures were stained and measured by flow cytometry as described in example 3, the measurement scale being adapted to the measurement of the larger eukaryotic cells.

[3] = test system: Staphylococcus xylosus; test: Mixed culture experiment (bacterially contaminated cell culture), bacteria; type: cell-based; conditions: 25 and 50 μM peptide, two hours, with U937
Procedure: as §1, §2

[4] = U937, complete suppression of cell growth after four days

| Molecule | Toxicity MTC (minimum toxic concentration) [1] [µM] | Toxicity MTC (minimum toxic concentration) [1, 4] [µM] | Effect on eukaryotic U937 cells in mixed culture [2] | Killing of S. xylosus cells in mixed culture [3] |
| --- | --- | --- | --- | --- |
| KILILIKRK-OH [N4] | >64 | – | – | – |
| MPRRRRSSSRPVRRRRRPRVSRRRRRRGGRRR (Protamine) | 16 | – | – | – |
| KRKRKILILIKRK-OH [N1] | 32 | – | – | – |
| CC[C@H](C)[C@H](NC(=O)CN)C(=O)NCC(=O)N[C@@H](C)C(=O)N[C@H](C(=O)N[C@@H](CC(C)C)C(=O)N[C@@H](CCCCN)C(=O)N[C@H](C(=O)N[C@@H](CC(C)C)C(=O)N[C@H](C(=O)N[C@H](C(=O)NCC(=O)N[C@@H](CC(C)C)C(=O)N1CCC[C@H]1C(=O)N[C@@H](C)C(=O)N[C@@H](CC(C)C)C(=O)N[C@H](C(=O)N[C@@H](CO)C(=O)N[C@@H](Cc1c[nH]c2ccccc12)C(=O)N[C@H](C(=O)N[C@@H](CCCCN)C(=O)N[C@@H](CCCNC(=N)N)C(=O)N[C@@H](CCCCN)C(=O)N[C@@H](CCCNC(=N)N)C(=O)N[C@@H](CCC(N)=O)C(=O)N[C@@H](CCC(N)=O)C(N)=O)[C@@H](C)CC)[C@@H](C)CC)[C@@H](C)O)[C@@H](C)O)C(C)C)C(C)C [Melittin] | – | 2.0 | destroys all of the eukaryotic U937 cells | comprehensive killing of bacteria cells |
| ILPWKWPWWPWRR [Indolicidin] | – | >64 | – | – |
